Laboratory results published in patent US8617614B2, “Sustained release preparation for tissue regeneration therapy” (Ono Pharmaceutical Co., Ltd., priority 2006, dated 2013).

What was measured:
[1] = tested on: STZ induced diabetes model; assay: Oral glucose tolerance test (OGTT), insulin, STZ induced diabetes model; type: in vivo; details: OGTT 2 g/kg, week 13; STZ rat; Test Group 3: 3 mg/kg oral twice daily
Experimental: Female Sprague-Dawley rats (8- to 11-week-old; Japan SLC, Inc.) were intraperitoneally administered 40 mg/kg of a citrate buffer (pH, approx. 4.5) of streptozotocin (STZ; Sigma). A normal control group was intraperitoneally given only the citrate buffer. Administration was carried out in accordance with the intended route of administration for clinical use. In Test Group 3, forced administration was carried out orally using a disposable syringe barrel and a rat stomach probe. In Test Group 4, intramuscular administration was carried out uniformly at four places within the muscle along the sciatic nerve in the femoral portion of the left leg. For subcutaneous administration in test Group 5, the animals were ether anesthetized, and subcutaneous administration was carried out in the dorsal region using a disposable syringe barrel and a disposable 25 G syringe needle. The volume of solution administered was computed based on the latest body weight. Thirteen weeks after the start of test substance administration, an oral glucose tolerance test (OGTT) was conducted on rats fasted for 18 hours. After drawing blood from the caudal vein of the fasting rats, 2 g/kg of glucose was orally force-fed. About 500 μL of blood was similarly collected from the caudal vein 30, 60 and 120 minutes after glucose administration, of which about 400 μL was EDTA-2Na treated, then centrifuged (3,000 rpm, 4° C., 10 min) with a centrifuge. The plasma was thereby collected, and the blood sugar was measured using a 7170 Clinical Analyzer (Hitachi, Ltd.). The remaining approximately 100 μL of blood was centrifuged (3,000 rpm, 4° C., 10 min) with a centrifuge, the serum was collected, and the insulin level was measured (ELISA method; Levis Insulin Kit (Shibayagi Co., Ltd)).

SDF-1 = SDF-1 production promoting effect, angiogenesis kit culture, ELISA; type: cell-based, human; details: 100 nmol/L
Experimental: An angiogenesis kit (Kurabo Industries Ltd.) composed of normal human umbilical vein endothelial cells and normal human skin fibroblasts was procured and used.
Using a carbon dioxide incubator (BNA-121D) and using Angiogenesis Culture 2 provided with the angiogenesis kit as the liquid culture, culturing was carried out in a wet environment at 37° C. with 5% carbon dioxide/95% air.
Immediately after the kit arrived, the cells were cultured for 3 hours, following which the liquid culture was replaced and culturing was continued. Three days after the start of culturing, the liquid culture was again replaced. Six days after the start of culturing, treatment with the present drug was carried out by replacing the liquid culture. The treatment concentration was set to 100 nmol/L in each case. DMSO treatment was carried out as a negative control. Six, 24, 48 and 72 hours after treatment with the present drug, the culture supernatant was collected and furnished for measurement of the growth factors. The measured growth factors were EGF and SDF-1.
The culture supernatant was measured with the following ELISA kits.
Human SDF-1α Immunoassay (R&D Systems Inc., DSA00)

[2] = tested on: STZ induced diabetes model; assay: Time course of blood sugar level, STZ induced diabetes model; type: in vivo; details: STZ rat, Test Group 3: 3 mg/kg oral twice daily
Experimental: Female Sprague-Dawley rats (8- to 11-week-old; Japan SLC, Inc.) were intraperitoneally administered 40 mg/kg of a citrate buffer (pH, approx. 4.5) of streptozotocin (STZ; Sigma). A normal control group was intraperitoneally given only the citrate buffer. Two weeks after STZ administration, the blood sugar, nerve conduction velocity and body weight were measured, the animals were divided into groups uniform for these properties, and administration of the test substance was begun. To determine the change over time in blood sugar, the blood sugar level was measured 4, 8 and 12 weeks following the start of test solution administration (on the day prior to nerve conduction velocity measurement). The blood sugar level of blood drawn from the caudal vein was measured using a blood sugar analyzer (Antisense II; Bayer-Sankyo). Following measurement of the blood sugar 12 weeks later, the animals were deprived of food for at least 16 hours and the fasting blood sugar and insulin were measured. In addition, a 2 g glucose tolerance test was carried out in which blood was similarly drawn 30, 60 and 120 minutes after sugar loading, and the blood sugar and insulin values were measured. In Groups 2 to 5, the feeding blood sugar level two weeks after STZ administration was measured. Of rats with blood sugar levels above 300 mg/dL, severely diabetic rats were excluded therefrom, and the remaining rats were used as diabetes model animals. Groups were formed in such a way as to make the respective groups uniform with respect to nerve conduction velocity, blood sugar level and body weight. Administration was carried out in accordance with the intended route of administration for clinical use. In Test Group 3, forced administration was carried out orally using a disposable syringe barrel and a rat stomach probe. In Test Group 4, intramuscular administration was carried out uniformly at four places within the muscle along the sciatic nerve in the femoral portion of the left leg. For subcutaneous administration in test Group 5, the animals were ether anesthetized, and subcutaneous administration was carried out in the dorsal region using a disposable syringe barrel and a disposable 25 G syringe needle. The volume of solution administered was computed based on the latest body weight. The amount of microspheres administered indicates the amount of the present drug included.

## O=C(O)COc1cccc2c1CCC=C2CCO/N=C(\c1ccccc1)c1cccnc1 [present drug, ({5-[2-({[(1E)-phenyl(pyridin-3-yl)methylene]amino}oxy)ethyl]-7,8-dihydronaphthalen-1-yl}oxy)acetic acid]
[1]
  Insulin (ng/mL) After 30 minutes: 2.197 ± 2.062 ng/mL
  Insulin (ng/mL) After 60 minutes: 1.808 ± 1.521 ng/mL
  Insulin (ng/mL) After 120 minutes: 2.130 ± 2.087 ng/mL
  Insulin (ng/mL) Before glucose loading: 2.138 ± 1.722 ng/mL
SDF-1; 72 hours after treatment
  SDF-1 relative to the solvent control group: significantly increased
SDF-1; culture supernatant 72 hours after treatment
  SDF-1, Drug group: 383 ± 36.0 pg/mL
[2]
  Blood sugar (mg/dL) 0 weeks: 567 ± 73 mg/dL
  Blood sugar (mg/dL) 4 weeks: 555 ± 39 mg/dL
  Blood sugar (mg/dL) 8 weeks: 600 ± 64 mg/dL
  Blood sugar (mg/dL) 12 weeks: 510 ± 84 mg/dL
[2]; at any of the times
  blood sugar relative to Test Group 2: A significant decline in blood sugar was not observed
